Assay results reported in the supplement of paper PMC4862054.

Tested on: BT-474
Test: normalised viability (% of control), CellTiter-Blue; higher = more viable cells (about 100 = DMSO control)
Details: 1 nM; incubation time: 72 h
Summary of the method: (§1)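 Seeded at 20 µl suspension per well onto compound-loaded 384-well plates, breast cancer cell lines were incubated 72 h. CellTiter-Blue fluorescence at 560/590 nm was then read, with each plate normalised to vehicle (100) and a positive kill control (0). Normalised viability is reported at a single listed concentration of the series.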

**Q.** How did the normalised viability turn out when `COc1cc2c(Oc3ccc(NC(=O)C4(C(=O)Nc5ccc(F)cc5)CC4)cc3F)ccnc2cc1OCCCN1CCOCC1` [Foretinib] was run?
**A.** Its normalised viability is 102%.

**Q.** How did the normalised viability turn out when `O=C(O)CC[C@H]1CC[C@@](c2cc(F)ccc2F)(S(=O)(=O)c2ccc(Cl)cc2)CC1` [MK-0752] was run?
**A.** Its normalised viability is 121%.

Same assay, conditions: 10 nM; incubation time: 72 h

**Q.** How did the normalised viability turn out when `Nc1nc(Cl)nc2c1ncn2[C@@H]1O[C@H](CO)[C@@H](O)[C@@H]1F` [Clofarabine] was run?
**A.** Its normalised viability is 106%.

**Q.** For `CCN(CC)CCOc1ccc(C(=C(Cl)c2ccccc2)c2ccccc2)cc1` [Clomifene], which normalised viability is on record?
**A.** The normalised viability was 118%.

**Q.** Which normalised viability does the source give for `C[C@@H]1C[C@H]2[C@@H]3CCC4=CC(=O)C=C[C@]4(C)[C@@]3(F)[C@@H](O)C[C@]2(C)[C@@]1(O)C(=O)CO` [Dexamethasone] here?
**A.** The normalised viability was 110%.

**Q.** With `CC(C)C(=O)Nc1ccc([N+](=O)[O-])c(C(F)(F)F)c1` [Flutamide] as the molecule, how does the normalised viability read?
**A.** The normalised viability was 117%.

**Q.** Which normalised viability does the source give for `O=NN(CCCl)C(=O)NC1CCCCC1` [Lomustine] here?
**A.** The normalised viability was 108%.

Same assay, conditions: 100 nM; incubation time: 72 h

**Q.** How did the normalised viability turn out when `COc1cc2c(Oc3ccc(NC(=O)C4(C(=O)Nc5ccc(F)cc5)CC4)cc3F)ccnc2cc1OCCCN1CCOCC1` [Foretinib] was run?
**A.** Its normalised viability is 117%.

**Q.** `NC(=O)NO` [Hydroxyurea] was tested. Which normalised viability did it give?
**A.** Its normalised viability is 110%.

**Q.** Which normalised viability does the source give for `O=C(O)CC[C@H]1CC[C@@](c2cc(F)ccc2F)(S(=O)(=O)c2ccc(Cl)cc2)CC1` [MK-0752] here?
**A.** The normalised viability was 128%.

Same assay, conditions: 1000 nM; incubation time: 72 h

**Q.** How did the normalised viability turn out when `Nc1nc(Cl)nc2c1ncn2[C@@H]1O[C@H](CO)[C@@H](O)[C@@H]1F` [Clofarabine] was run?
**A.** The normalised viability was 101%.

**Q.** With `CCN(CC)CCOc1ccc(C(=C(Cl)c2ccccc2)c2ccccc2)cc1` [Clomifene] as the molecule, how does the normalised viability read?
**A.** The normalised viability was 111%.

**Q.** `C[C@@H]1C[C@H]2[C@@H]3CCC4=CC(=O)C=C[C@]4(C)[C@@]3(F)[C@@H](O)C[C@]2(C)[C@@]1(O)C(=O)CO` [Dexamethasone] was tested. Which normalised viability did it give?
**A.** The normalised viability was 119%.

**Q.** How did the normalised viability turn out when `CC(C)C(=O)Nc1ccc([N+](=O)[O-])c(C(F)(F)F)c1` [Flutamide] was run?
**A.** The normalised viability was 115%.

**Q.** `COc1cc2c(Oc3ccc(NC(=O)C4(C(=O)Nc5ccc(F)cc5)CC4)cc3F)ccnc2cc1OCCCN1CCOCC1` [Foretinib] was tested. Which normalised viability did it give?
**A.** The normalised viability was 84.3%.

**Q.** Which normalised viability does the source give for `O=NN(CCCl)C(=O)NC1CCCCC1` [Lomustine] here?
**A.** Its normalised viability is 114%.

**Q.** `O=C(O)CC[C@H]1CC[C@@](c2cc(F)ccc2F)(S(=O)(=O)c2ccc(Cl)cc2)CC1` [MK-0752] was tested. Which normalised viability did it give?
**A.** The normalised viability was 134%.

Same assay, conditions: 10000 nM; incubation time: 72 h

**Q.** Which normalised viability does the source give for `Nc1nc(Cl)nc2c1ncn2[C@@H]1O[C@H](CO)[C@@H](O)[C@@H]1F` [Clofarabine] here?
**A.** Its normalised viability is 102%.

**Q.** How did the normalised viability turn out when `CCN(CC)CCOc1ccc(C(=C(Cl)c2ccccc2)c2ccccc2)cc1` [Clomifene] was run?
**A.** The normalised viability was 17.1%.

**Q.** How did the normalised viability turn out when `C[C@@H]1C[C@H]2[C@@H]3CCC4=CC(=O)C=C[C@]4(C)[C@@]3(F)[C@@H](O)C[C@]2(C)[C@@]1(O)C(=O)CO` [Dexamethasone] was run?
**A.** The normalised viability was 118%.

**Q.** `CC(C)C(=O)Nc1ccc([N+](=O)[O-])c(C(F)(F)F)c1` [Flutamide] was tested. Which normalised viability did it give?
**A.** Its normalised viability is 116%.

**Q.** For `NC(=O)NO` [Hydroxyurea], which normalised viability is on record?
**A.** The normalised viability was 111%.

**Q.** `O=NN(CCCl)C(=O)NC1CCCCC1` [Lomustine] was tested. Which normalised viability did it give?
**A.** Its normalised viability is 128%.

Same assay, conditions: 100000 nM; incubation time: 72 h

**Q.** `NC(=O)NO` [Hydroxyurea] was tested. Which normalised viability did it give?
**A.** The normalised viability was 110%.

Tested on: BT-549
Test: as above
Details: 1 nM; incubation time: 72 h
Summary of the method: as §1

**Q.** For `COc1cc2c(Oc3ccc(NC(=O)C4(C(=O)Nc5ccc(F)cc5)CC4)cc3F)ccnc2cc1OCCCN1CCOCC1` [Foretinib], which normalised viability is on record?
**A.** Its normalised viability is 79%.

**Q.** Which normalised viability does the source give for `O=C(O)CC[C@H]1CC[C@@](c2cc(F)ccc2F)(S(=O)(=O)c2ccc(Cl)cc2)CC1` [MK-0752] here?
**A.** The normalised viability was 93.4%.

Same assay, conditions: 10 nM; incubation time: 72 h

**Q.** Which normalised viability does the source give for `Nc1nc(Cl)nc2c1ncn2[C@@H]1O[C@H](CO)[C@@H](O)[C@@H]1F` [Clofarabine] here?
**A.** The normalised viability was 87.5%.

**Q.** With `CCN(CC)CCOc1ccc(C(=C(Cl)c2ccccc2)c2ccccc2)cc1` [Clomifene] as the molecule, how does the normalised viability read?
**A.** Its normalised viability is 109%.

**Q.** For `C[C@@H]1C[C@H]2[C@@H]3CCC4=CC(=O)C=C[C@]4(C)[C@@]3(F)[C@@H](O)C[C@]2(C)[C@@]1(O)C(=O)CO` [Dexamethasone], which normalised viability is on record?
**A.** Its normalised viability is 93.6%.

**Q.** For `CC(C)C(=O)Nc1ccc([N+](=O)[O-])c(C(F)(F)F)c1` [Flutamide], which normalised viability is on record?
**A.** Its normalised viability is 89.7%.

**Q.** How did the normalised viability turn out when `O=NN(CCCl)C(=O)NC1CCCCC1` [Lomustine] was run?
**A.** The normalised viability was 84.4%.

Same assay, conditions: 100 nM; incubation time: 72 h

**Q.** Which normalised viability does the source give for `COc1cc2c(Oc3ccc(NC(=O)C4(C(=O)Nc5ccc(F)cc5)CC4)cc3F)ccnc2cc1OCCCN1CCOCC1` [Foretinib] here?
**A.** The normalised viability was 101%.

**Q.** With `NC(=O)NO` [Hydroxyurea] as the molecule, how does the normalised viability read?
**A.** Its normalised viability is 82.8%.

**Q.** `O=C(O)CC[C@H]1CC[C@@](c2cc(F)ccc2F)(S(=O)(=O)c2ccc(Cl)cc2)CC1` [MK-0752] was tested. Which normalised viability did it give?
**A.** Its normalised viability is 80.3%.

Same assay, conditions: 1000 nM; incubation time: 72 h

**Q.** With `Nc1nc(Cl)nc2c1ncn2[C@@H]1O[C@H](CO)[C@@H](O)[C@@H]1F` [Clofarabine] as the molecule, how does the normalised viability read?
**A.** The normalised viability was 50.6%.

**Q.** `CCN(CC)CCOc1ccc(C(=C(Cl)c2ccccc2)c2ccccc2)cc1` [Clomifene] was tested. Which normalised viability did it give?
**A.** The normalised viability was 96.6%.

**Q.** `C[C@@H]1C[C@H]2[C@@H]3CCC4=CC(=O)C=C[C@]4(C)[C@@]3(F)[C@@H](O)C[C@]2(C)[C@@]1(O)C(=O)CO` [Dexamethasone] was tested. Which normalised viability did it give?
**A.** Its normalised viability is 90.3%.

**Q.** How did the normalised viability turn out when `CC(C)C(=O)Nc1ccc([N+](=O)[O-])c(C(F)(F)F)c1` [Flutamide] was run?
**A.** The normalised viability was 84.3%.

**Q.** With `COc1cc2c(Oc3ccc(NC(=O)C4(C(=O)Nc5ccc(F)cc5)CC4)cc3F)ccnc2cc1OCCCN1CCOCC1` [Foretinib] as the molecule, how does the normalised viability read?
**A.** The normalised viability was 72%.

**Q.** Which normalised viability does the source give for `O=NN(CCCl)C(=O)NC1CCCCC1` [Lomustine] here?
**A.** Its normalised viability is 86.6%.

**Q.** Which normalised viability does the source give for `O=C(O)CC[C@H]1CC[C@@](c2cc(F)ccc2F)(S(=O)(=O)c2ccc(Cl)cc2)CC1` [MK-0752] here?
**A.** The normalised viability was 99.1%.

Same assay, conditions: 10000 nM; incubation time: 72 h

**Q.** How did the normalised viability turn out when `Nc1nc(Cl)nc2c1ncn2[C@@H]1O[C@H](CO)[C@@H](O)[C@@H]1F` [Clofarabine] was run?
**A.** The normalised viability was 42.3%.

**Q.** With `CCN(CC)CCOc1ccc(C(=C(Cl)c2ccccc2)c2ccccc2)cc1` [Clomifene] as the molecule, how does the normalised viability read?
**A.** Its normalised viability is 36%.

**Q.** Which normalised viability does the source give for `C[C@@H]1C[C@H]2[C@@H]3CCC4=CC(=O)C=C[C@]4(C)[C@@]3(F)[C@@H](O)C[C@]2(C)[C@@]1(O)C(=O)CO` [Dexamethasone] here?
**A.** The normalised viability was 93.5%.

**Q.** Which normalised viability does the source give for `CC(C)C(=O)Nc1ccc([N+](=O)[O-])c(C(F)(F)F)c1` [Flutamide] here?
**A.** Its normalised viability is 90%.

**Q.** Which normalised viability does the source give for `NC(=O)NO` [Hydroxyurea] here?
**A.** Its normalised viability is 93.8%.

**Q.** `O=NN(CCCl)C(=O)NC1CCCCC1` [Lomustine] was tested. Which normalised viability did it give?
**A.** Its normalised viability is 84.6%.

Same assay, conditions: 100000 nM; incubation time: 72 h

**Q.** Which normalised viability does the source give for `NC(=O)NO` [Hydroxyurea] here?
**A.** Its normalised viability is 87%.

Tested on: CAL-120
Test: as above
Details: 1 nM; incubation time: 72 h
Summary of the method: as §1

**Q.** Which normalised viability does the source give for `COc1cc2c(Oc3ccc(NC(=O)C4(C(=O)Nc5ccc(F)cc5)CC4)cc3F)ccnc2cc1OCCCN1CCOCC1` [Foretinib] here?
**A.** The normalised viability was 88.3%.

**Q.** Which normalised viability does the source give for `O=C(O)CC[C@H]1CC[C@@](c2cc(F)ccc2F)(S(=O)(=O)c2ccc(Cl)cc2)CC1` [MK-0752] here?
**A.** Its normalised viability is 90.2%.

Same assay, conditions: 10 nM; incubation time: 72 h

**Q.** How did the normalised viability turn out when `Nc1nc(Cl)nc2c1ncn2[C@@H]1O[C@H](CO)[C@@H](O)[C@@H]1F` [Clofarabine] was run?
**A.** Its normalised viability is 89.1%.

**Q.** For `CCN(CC)CCOc1ccc(C(=C(Cl)c2ccccc2)c2ccccc2)cc1` [Clomifene], which normalised viability is on record?
**A.** The normalised viability was 93.4%.

**Q.** How did the normalised viability turn out when `C[C@@H]1C[C@H]2[C@@H]3CCC4=CC(=O)C=C[C@]4(C)[C@@]3(F)[C@@H](O)C[C@]2(C)[C@@]1(O)C(=O)CO` [Dexamethasone] was run?
**A.** Its normalised viability is 76%.

**Q.** `CC(C)C(=O)Nc1ccc([N+](=O)[O-])c(C(F)(F)F)c1` [Flutamide] was tested. Which normalised viability did it give?
**A.** Its normalised viability is 96.7%.

**Q.** For `O=NN(CCCl)C(=O)NC1CCCCC1` [Lomustine], which normalised viability is on record?
**A.** Its normalised viability is 93.9%.

Same assay, conditions: 100 nM; incubation time: 72 h

**Q.** For `COc1cc2c(Oc3ccc(NC(=O)C4(C(=O)Nc5ccc(F)cc5)CC4)cc3F)ccnc2cc1OCCCN1CCOCC1` [Foretinib], which normalised viability is on record?
**A.** The normalised viability was 95.4%.

**Q.** For `NC(=O)NO` [Hydroxyurea], which normalised viability is on record?
**A.** The normalised viability was 113%.

**Q.** How did the normalised viability turn out when `O=C(O)CC[C@H]1CC[C@@](c2cc(F)ccc2F)(S(=O)(=O)c2ccc(Cl)cc2)CC1` [MK-0752] was run?
**A.** Its normalised viability is 97.2%.
